Earlier results in paper PMC9851200, “Multiparameter phenotypic screening for endogenous TFEB and TFE3 translocation identifies novel chemical series modulating lysosome function” (Autophagy, 2022).

Columns and labels:
Design in all cases: method as in original PKIS2 published data
[1] = target: T1, kinases (KINOMEscan panel) (Homo sapiens, UniProt Q7L7X3); settings: kinase TAOK1; Published KINOMEscan; ref original PKIS2 published data; cited from earlier work
T1 sequence (Q7L7X3 1-1001): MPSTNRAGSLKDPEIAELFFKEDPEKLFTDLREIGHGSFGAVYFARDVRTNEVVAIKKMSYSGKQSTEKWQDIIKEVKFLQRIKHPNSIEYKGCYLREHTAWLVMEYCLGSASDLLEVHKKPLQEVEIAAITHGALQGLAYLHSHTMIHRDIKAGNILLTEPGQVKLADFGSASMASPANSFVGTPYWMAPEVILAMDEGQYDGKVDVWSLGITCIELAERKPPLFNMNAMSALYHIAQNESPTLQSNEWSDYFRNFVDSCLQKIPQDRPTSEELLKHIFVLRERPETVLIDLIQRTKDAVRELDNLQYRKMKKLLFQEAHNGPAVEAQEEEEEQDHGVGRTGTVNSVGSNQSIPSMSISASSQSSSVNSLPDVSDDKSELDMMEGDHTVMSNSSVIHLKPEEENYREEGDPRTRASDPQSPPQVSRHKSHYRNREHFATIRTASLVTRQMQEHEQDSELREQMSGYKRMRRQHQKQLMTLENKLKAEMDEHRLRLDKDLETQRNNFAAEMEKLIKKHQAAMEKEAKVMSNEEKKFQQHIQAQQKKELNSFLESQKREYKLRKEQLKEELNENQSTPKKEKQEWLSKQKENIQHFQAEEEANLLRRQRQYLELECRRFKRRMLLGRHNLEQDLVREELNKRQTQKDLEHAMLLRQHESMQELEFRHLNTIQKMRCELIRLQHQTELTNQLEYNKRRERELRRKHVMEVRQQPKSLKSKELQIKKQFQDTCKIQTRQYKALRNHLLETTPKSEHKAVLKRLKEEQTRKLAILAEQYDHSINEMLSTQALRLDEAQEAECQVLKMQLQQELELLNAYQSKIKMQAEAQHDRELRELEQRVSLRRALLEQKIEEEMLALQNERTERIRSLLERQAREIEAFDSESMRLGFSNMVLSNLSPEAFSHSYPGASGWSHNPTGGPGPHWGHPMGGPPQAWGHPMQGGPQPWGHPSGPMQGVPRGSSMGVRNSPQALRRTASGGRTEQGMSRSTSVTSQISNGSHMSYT

[2] = target: kinases (KINOMEscan panel) (Homo sapiens, UniProt Q9HC98); settings: kinase NEK6; Published KINOMEscan; ref original PKIS2 published data; cited from earlier work
[3] = target: kinases (KINOMEscan panel) (Homo sapiens, UniProt P49840); settings: GSK3A; Published KINOMEscan; ref original PKIS2 published data; cited from earlier work
[4] = target: kinases (KINOMEscan panel) (Homo sapiens, UniProt O75716); settings: kinase STK16; Published KINOMEscan; ref original PKIS2 published data; cited from earlier work
[5] = target: kinases (KINOMEscan panel) (Homo sapiens, UniProt P06213); settings: kinase INSR; Published KINOMEscan; ref original PKIS2 published data; cited from earlier work
[6] = target: kinases (KINOMEscan panel) (Homo sapiens, UniProt Q05655); settings: kinase PRKCD; Published KINOMEscan; ref original PKIS2 published data; cited from earlier work
[7] = target: T2, kinases (KINOMEscan panel) (Homo sapiens, UniProt O14730); settings: RIOK3; Published KINOMEscan; ref original PKIS2 published data; cited from earlier work
T2 sequence (O14730 1-519): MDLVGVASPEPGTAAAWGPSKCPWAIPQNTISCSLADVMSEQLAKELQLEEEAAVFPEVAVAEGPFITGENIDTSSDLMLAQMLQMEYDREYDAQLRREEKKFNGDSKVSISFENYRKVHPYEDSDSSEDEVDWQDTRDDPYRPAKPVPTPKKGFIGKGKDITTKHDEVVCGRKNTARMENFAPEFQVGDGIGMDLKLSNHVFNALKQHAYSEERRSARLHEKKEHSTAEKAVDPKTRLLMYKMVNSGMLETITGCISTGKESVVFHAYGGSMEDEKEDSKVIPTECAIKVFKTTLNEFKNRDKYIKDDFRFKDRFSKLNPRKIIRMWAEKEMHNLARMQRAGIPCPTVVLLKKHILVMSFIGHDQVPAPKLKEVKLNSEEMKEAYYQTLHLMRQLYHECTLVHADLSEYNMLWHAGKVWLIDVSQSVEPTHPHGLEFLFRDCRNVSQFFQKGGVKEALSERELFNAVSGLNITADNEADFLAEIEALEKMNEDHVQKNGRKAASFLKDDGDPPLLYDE

[8] = target: kinases (KINOMEscan panel) (Homo sapiens, UniProt Q96RR4); settings: CAMKK2; Published KINOMEscan; ref original PKIS2 published data; cited from earlier work
[9] = target: kinases (KINOMEscan panel) (Homo sapiens, UniProt P50613); settings: kinase CDK7; Published KINOMEscan; ref original PKIS2 published data; cited from earlier work
[10] = target: kinases (KINOMEscan panel) (Homo sapiens, UniProt P22455); settings: Published KINOMEscan; ref original PKIS2 published data; cited from earlier work
kinases (KINOMEscan panel) (Homo sapiens, UniProt P22455), sequence (P22455 22-802): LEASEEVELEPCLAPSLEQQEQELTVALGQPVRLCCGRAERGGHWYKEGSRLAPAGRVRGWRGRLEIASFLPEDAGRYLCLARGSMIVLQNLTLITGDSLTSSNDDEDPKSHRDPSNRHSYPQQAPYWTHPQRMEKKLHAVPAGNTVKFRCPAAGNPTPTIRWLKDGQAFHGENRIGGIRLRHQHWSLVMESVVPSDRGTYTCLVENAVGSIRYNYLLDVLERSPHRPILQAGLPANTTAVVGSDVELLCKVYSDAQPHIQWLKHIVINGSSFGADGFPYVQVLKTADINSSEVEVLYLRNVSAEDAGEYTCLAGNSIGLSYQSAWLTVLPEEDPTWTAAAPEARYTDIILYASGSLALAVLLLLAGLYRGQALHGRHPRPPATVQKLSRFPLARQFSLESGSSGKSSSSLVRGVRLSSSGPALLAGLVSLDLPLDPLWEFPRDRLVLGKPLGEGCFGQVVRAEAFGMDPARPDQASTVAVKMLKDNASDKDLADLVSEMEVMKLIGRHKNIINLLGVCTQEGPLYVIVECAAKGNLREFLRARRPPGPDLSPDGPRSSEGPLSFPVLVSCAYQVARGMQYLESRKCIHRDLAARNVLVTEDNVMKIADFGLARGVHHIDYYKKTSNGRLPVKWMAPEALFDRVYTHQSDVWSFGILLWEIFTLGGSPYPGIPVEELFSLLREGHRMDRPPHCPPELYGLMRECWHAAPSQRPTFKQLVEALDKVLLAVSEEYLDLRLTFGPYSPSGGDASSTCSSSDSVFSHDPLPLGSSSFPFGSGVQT

kinases (KINOMEscan panel) (Homo sapiens, UniProt Q96RR4), sequence (Q96RR4 whole entry): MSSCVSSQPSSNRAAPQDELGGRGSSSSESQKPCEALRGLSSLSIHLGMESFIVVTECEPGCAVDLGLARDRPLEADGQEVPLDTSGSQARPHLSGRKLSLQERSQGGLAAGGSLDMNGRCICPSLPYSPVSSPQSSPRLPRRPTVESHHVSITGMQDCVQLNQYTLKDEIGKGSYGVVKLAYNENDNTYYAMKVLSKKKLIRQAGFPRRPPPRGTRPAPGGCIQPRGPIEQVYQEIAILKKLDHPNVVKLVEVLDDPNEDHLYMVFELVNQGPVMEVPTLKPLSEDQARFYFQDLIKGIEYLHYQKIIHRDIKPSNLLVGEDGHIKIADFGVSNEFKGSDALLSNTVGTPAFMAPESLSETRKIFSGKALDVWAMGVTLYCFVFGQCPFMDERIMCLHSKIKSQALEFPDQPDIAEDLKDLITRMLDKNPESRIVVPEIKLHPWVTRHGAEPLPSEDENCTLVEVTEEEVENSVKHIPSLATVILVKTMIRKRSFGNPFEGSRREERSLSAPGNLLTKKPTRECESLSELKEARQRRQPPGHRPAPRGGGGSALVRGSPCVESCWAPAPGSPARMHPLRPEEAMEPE
kinases (KINOMEscan panel) (Homo sapiens, UniProt O75716), sequence (O75716 whole entry): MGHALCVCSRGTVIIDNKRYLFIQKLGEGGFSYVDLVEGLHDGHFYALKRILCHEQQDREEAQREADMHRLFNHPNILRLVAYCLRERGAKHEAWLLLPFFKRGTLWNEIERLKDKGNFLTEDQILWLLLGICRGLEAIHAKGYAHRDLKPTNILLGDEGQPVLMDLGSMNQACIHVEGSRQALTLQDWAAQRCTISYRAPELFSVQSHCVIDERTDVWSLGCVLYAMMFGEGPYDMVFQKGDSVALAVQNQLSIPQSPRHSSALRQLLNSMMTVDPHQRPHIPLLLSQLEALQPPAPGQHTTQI
kinases (KINOMEscan panel) (Homo sapiens, UniProt Q05655), sequence (Q05655 whole entry): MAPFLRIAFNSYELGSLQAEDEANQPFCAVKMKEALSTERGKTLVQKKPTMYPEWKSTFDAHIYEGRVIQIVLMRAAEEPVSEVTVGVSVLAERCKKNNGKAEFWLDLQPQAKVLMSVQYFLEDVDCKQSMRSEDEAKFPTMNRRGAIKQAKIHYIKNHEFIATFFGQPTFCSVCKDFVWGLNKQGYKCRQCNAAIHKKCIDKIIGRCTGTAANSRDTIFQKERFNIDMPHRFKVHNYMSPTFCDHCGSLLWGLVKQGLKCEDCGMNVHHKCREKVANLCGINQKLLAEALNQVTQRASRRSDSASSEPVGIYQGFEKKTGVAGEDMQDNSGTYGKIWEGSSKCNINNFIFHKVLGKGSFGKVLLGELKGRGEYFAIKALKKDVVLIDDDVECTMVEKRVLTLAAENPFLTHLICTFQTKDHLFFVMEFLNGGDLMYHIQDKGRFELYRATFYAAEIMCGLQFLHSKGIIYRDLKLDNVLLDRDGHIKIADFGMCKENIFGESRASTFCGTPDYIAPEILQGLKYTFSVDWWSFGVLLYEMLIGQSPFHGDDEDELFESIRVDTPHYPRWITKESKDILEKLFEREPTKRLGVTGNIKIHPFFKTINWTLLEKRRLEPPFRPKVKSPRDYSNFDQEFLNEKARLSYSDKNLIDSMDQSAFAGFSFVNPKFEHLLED
kinases (KINOMEscan panel) (Homo sapiens, UniProt P50613), sequence (P50613 whole entry): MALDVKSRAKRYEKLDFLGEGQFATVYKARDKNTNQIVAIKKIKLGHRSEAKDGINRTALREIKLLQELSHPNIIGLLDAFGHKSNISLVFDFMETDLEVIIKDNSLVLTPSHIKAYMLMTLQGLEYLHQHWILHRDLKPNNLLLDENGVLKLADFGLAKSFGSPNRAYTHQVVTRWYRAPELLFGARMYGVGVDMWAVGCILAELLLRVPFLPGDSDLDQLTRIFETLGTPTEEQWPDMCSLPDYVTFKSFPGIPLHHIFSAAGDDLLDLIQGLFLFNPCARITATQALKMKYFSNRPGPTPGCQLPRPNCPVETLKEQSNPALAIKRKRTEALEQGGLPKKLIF
kinases (KINOMEscan panel) (Homo sapiens, UniProt P06213), sequence (P06213 28-1382): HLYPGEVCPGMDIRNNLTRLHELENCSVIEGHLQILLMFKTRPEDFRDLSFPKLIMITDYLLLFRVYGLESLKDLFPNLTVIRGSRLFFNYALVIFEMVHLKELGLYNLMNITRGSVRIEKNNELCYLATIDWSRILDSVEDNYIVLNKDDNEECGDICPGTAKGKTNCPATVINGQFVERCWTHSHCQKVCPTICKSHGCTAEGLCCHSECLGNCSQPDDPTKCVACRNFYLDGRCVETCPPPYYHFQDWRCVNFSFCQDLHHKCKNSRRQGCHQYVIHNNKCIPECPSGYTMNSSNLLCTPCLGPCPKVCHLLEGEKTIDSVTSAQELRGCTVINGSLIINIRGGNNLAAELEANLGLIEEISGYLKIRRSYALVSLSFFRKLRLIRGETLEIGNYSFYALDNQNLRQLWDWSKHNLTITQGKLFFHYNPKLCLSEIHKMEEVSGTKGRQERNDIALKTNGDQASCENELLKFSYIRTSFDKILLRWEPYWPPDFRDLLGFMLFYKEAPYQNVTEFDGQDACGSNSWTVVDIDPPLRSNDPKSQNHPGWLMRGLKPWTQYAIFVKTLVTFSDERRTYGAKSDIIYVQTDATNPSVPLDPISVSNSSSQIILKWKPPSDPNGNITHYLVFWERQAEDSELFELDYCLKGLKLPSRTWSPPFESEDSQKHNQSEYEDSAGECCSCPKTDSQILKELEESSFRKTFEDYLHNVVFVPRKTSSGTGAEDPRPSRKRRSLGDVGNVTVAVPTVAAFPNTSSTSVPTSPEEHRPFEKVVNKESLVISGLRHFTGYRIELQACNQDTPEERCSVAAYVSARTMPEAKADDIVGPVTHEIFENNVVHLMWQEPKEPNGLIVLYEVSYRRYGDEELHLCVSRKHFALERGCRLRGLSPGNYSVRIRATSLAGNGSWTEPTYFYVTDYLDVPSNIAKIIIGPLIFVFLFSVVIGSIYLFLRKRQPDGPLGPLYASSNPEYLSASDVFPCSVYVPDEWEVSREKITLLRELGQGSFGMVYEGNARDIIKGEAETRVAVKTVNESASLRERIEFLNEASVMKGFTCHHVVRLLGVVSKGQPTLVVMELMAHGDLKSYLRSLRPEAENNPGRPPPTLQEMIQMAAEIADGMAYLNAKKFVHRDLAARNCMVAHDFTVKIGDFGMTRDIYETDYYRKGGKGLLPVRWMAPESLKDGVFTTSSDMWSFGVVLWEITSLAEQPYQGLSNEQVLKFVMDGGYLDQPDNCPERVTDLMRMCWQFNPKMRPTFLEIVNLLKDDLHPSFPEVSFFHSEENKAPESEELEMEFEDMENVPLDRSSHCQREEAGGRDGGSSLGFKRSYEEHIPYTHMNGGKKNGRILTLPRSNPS
kinases (KINOMEscan panel) (Homo sapiens, UniProt Q9HC98), sequence (Q9HC98 whole entry): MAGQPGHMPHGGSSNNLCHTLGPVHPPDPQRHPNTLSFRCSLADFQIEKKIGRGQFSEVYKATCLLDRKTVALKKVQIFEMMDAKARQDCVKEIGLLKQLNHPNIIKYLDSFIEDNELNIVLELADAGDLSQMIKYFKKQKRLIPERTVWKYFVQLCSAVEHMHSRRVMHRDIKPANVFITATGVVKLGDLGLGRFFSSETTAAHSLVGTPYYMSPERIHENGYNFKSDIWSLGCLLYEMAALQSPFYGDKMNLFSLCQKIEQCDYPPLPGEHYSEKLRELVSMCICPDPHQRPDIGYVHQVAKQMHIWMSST
kinases (KINOMEscan panel) (Homo sapiens, UniProt P49840), sequence (P49840 whole entry): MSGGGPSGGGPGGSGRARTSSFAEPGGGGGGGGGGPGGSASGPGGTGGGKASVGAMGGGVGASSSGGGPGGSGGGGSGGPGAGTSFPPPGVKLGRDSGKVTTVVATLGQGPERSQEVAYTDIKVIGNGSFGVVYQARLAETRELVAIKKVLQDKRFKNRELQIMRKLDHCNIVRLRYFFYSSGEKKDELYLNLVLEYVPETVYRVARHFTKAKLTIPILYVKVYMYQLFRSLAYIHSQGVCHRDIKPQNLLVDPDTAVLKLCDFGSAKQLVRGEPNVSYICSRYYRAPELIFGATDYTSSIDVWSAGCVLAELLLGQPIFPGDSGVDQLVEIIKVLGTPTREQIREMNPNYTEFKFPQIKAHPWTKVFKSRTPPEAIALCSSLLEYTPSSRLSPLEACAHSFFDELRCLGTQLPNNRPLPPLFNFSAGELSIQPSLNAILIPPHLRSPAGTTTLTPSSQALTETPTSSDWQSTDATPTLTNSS

For `Cc1cccc(-c2nc(Nc3ccncc3)c3ccccc3n2)n1` [NK215], the “KINOMEscan TAOK1” value [1] is given as 0, the “KINOMEscan NEK6” value [2] is given as 21 and the “KINOMEscan GSK3A” value [3] is given as 4. For the same compound, the “KINOMEscan STK16” value [4] was 7, the “KINOMEscan INSR” value [5] was 7 and the “KINOMEscan PRKCD” value [6] was 29. The “KINOMEscan RIOK3” value [7] was 35, the “KINOMEscan CAMKK2” value [8] was 7 and the “KINOMEscan CDK7” value [9] was 0. The “KINOMEscan FGFR4” value [10] was 6.
